# *1 amine or outer side, *2 acyl side, *3 side chain or, on linkers, in order; H or OH if unused. Where a SMILES comes first, the peptide text is derived from it. The star is where a group is joined. X1 = O=C(CCCC[C@@H]1SC[C@@H]2NC(=O)N[C@@H]21)NCCCOCCOCCOCCCN*; Suc = O=C(CCC(=O)[*:2])[*:1]
# System: 266 human PDZ domains (PDZome)
# Assay: Holdup assay (chromatographic retention, PDZome-binding profile, BI)
# Set-up: key to maximal BI / Max BI / BI: binding intensity: 0.00 = no binding, 1.00 = maximal binding; Log(Kd): unit not given here
# Summary of the method: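 Streptavidin resin was saturated with biotinylated 11-mer or 13-mer PTEN PBM peptides (42 μM loading solution), with biotin-only resin as the reference. Resins were incubated for 15 min with lysates containing MBP- or thioredoxin-tagged PDZ domains adjusted to 4 μM, in singlicate. Free PDZ in the filtrate was quantified by capillary electrophoresis, and depletion versus reference gave binding intensity (0–1).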
# [1] = PDZ domain PARD3-1, first of two lines so named (r186)
structure (smiles),measurement,setting,value
CC[C@H](C)[C@H](NC(=O)[C@H](CCC(N)=O)NC(=O)[C@@H](NC(=O)[C@H](Cc1c[nH]cn1)NC(=O)[C@H](CCC(N)=O)NC(=O)[C@H](CC(=O)O)NC(=O)[C@H](CCC(=O)O)NC(=O)[C@H](CC(=O)O)NC(=O)CCC(=O)NCCCOCCOCCOCCCNC(=O)CCCC[C@@H]1SC[C@@H]2NC(=O)N[C@@H]21)[C@@H](C)O)C(=O)N[C@H](C(=O)N[C@@H](CCCNC(=N)N)C(=O)N[C@H](C(=O)O)C(C)C)[C@@H](C)O [PTEN_KR] ({X1-Suc}-DEDQHTQITRV-OH),number of additional new PDZ partners not detected for PTEN_11,"BI>0.20, compared with PTEN_11",≥ 11
same,BI,PDZ domain MPDZ-2,0.021
same,BI,PDZ domain MPDZ-3,0.034
same,BI,PDZ domain MPDZ-4,-0.021
same,BI,PDZ domain MPDZ-5,0.058
same,BI,PDZ domain MPDZ-6,0.033
same,BI,PDZ domain MPDZ-7,0.267
same,BI,PDZ domain MPDZ-8,0.128
same,BI,PDZ domain MPDZ-13,0.454
same,BI,PDZ domain MPP1-1,-0.046
same,BI,PDZ domain MPP2-1,-0.03
same,BI,PDZ domain MPP3-1,-0.023
same,BI,PDZ domain MPP4-1,0.067
same,BI,PDZ domain MPP5-1,-0.045
same,BI,PDZ domain MPP6-1,-0.058
same,BI,PDZ domain MPP7-1,-0.023
same,BI,PDZ domain NHERF1-2,0.063
same,BI,PDZ domain NHERF3-2,0.002
same,BI,PDZ domain NHERF3-3,0.185
same,BI,PDZ domain NHERF4-1,0.041
same,BI,PDZ domain NHERF4-2,-0.071
same,BI,PDZ domain NHERF4-3,-0.035
same,BI,PDZ domain NHERF4-4,0.01
same,BI,PDZ domain NOS1-1,0.039
same,BI,[1],0.3
same,Log(Kd),[1],4.255
same,BI,"PDZ domain PARD3-1, second of two lines so named (r187)",-0.046
same,BI,PDZ domain PARD3B-1,-0.02
same,BI,PDZ domain PARD3B-2,-0.019
same,BI,PDZ domain PARD3B-3,-0.035
same,BI,PDZ domain PARD6G-1,-0.023
same,BI,PDZ domain PDLIM1-1,-0.2
same,BI,PDZ domain PDLIM2-1,0.034
same,BI,PDZ domain PDLIM3-1,-0.065
same,BI,PDZ domain PDLIM4-1,-0.087
same,BI,PDZ domain PDLIM5-1,0.086
same,BI,PDZ domain PDLIM7-1,-0.042
same,BI,PDZ domain PDZD2-1,-0.056
same,BI,PDZ domain PDZD2-3,-0.096
same,BI,PDZ domain PDZD2-4,-0.092
same,BI,PDZ domain PDZD2-5,-0.089
same,BI,PDZ domain PDZD2-6,0.089
same,BI,PDZ domain PDZD4-1,0.031
same,BI,PDZ domain PDZD7-1,-0.024
same,BI,PDZ domain PDZD7-2,-0.039
same,BI,PDZ domain PDZD7-3,0.756
same,BI,PDZ domain PDZD8-1,0.006
same,BI,PDZ domain PDZD11-1,-0.048
same,BI,PDZ domain PDZRN4-1,0.048
same,BI,PDZ domain PDZRN4-2,-0.071
same,BI,PDZ domain PPP1R9A-1,0.012
same,BI,PDZ domain PPP1R9B-1,0.038
same,BI,PDZ domain PREX2-2,-0.004
same,BI,PDZ domain PRX-1,0.025
same,BI,PDZ domain PSMD9-1,-0.039
same,BI,PDZ domain PTPN3-1,0.12
same,BI,PDZ domain PTPN4-1,-0.038
same,BI,PDZ domain PTPN13-1,-0.017
same,BI,PDZ domain PTPN13-5,0.096
same,BI,PDZ domain RAPGEF2-1,-0.11
same,BI,PDZ domain RHPN2-1,-0.087
same,BI,PDZ domain RIMS1-1,0.013
same,BI,PDZ domain SCRIB-1,0.042
same,BI,PDZ domain SCRIB-2,0.147
same,BI,PDZ domain SCRIB-4,0.039
same,BI,PDZ domain SDCBP-2,-0.067
same,BI,PDZ domain SHANK1-1,0.547
same,BI,PDZ domain SHANK3-1,0.554
same,BI,PDZ domain SHROOM2-1,0.058
same,BI,PDZ domain SHROOM3-1,0.042
same,BI,PDZ domain SHROOM4-1,-0.148
same,BI,PDZ domain SIPA1L2-1,0.064
same,BI,PDZ domain SIPA1L3-1,-0.006
same,BI,PDZ domain SNTA1-1,0.395
same,BI,PDZ domain SNTB1-1,0.503
same,BI,PDZ domain SNTG1-1,0.076
same,BI,PDZ domain SNTG2-1,0.383
same,BI,PDZ domain STXB4-1,-0.075
same,BI,PDZ domain SYNJ2BP-1,-0.026
same,BI,PDZ domain SYNP2-1,-0.044
same,BI,PDZ domain SYNPO2L-1,-0.021
same,BI,PDZ domain TIAM2-1,0.037
same,BI,PDZ domain TJP1-2,-0.006
same,BI,PDZ domain TJP1-3,0.099
same,BI,PDZ domain TJP2-1,0.086
same,BI,PDZ domain TJP2-2,-0.005
same,BI,PDZ domain TJP2-3,-0.025
same,BI,PDZ domain TJP3-2,0.112
same,BI,PDZ domain TJP3-3,0.12
same,BI,PDZ domain TX1B3-1,-0.019
same,BI,PDZ domain USH1C-1,-0.098
same,BI,PDZ domain USH1C-2,-0.039
same,BI,PDZ domain USH1C-3,-0.061
same,number of PDZ domains identified as potential binders (BI>0.20),"holdup, singlicate, threshold BI>0.20",37 PDZ domains
same,maximal BI,"holdup, singlicate, highest BI in the PDZome profile, BI standard error ~0.07",0.86
same,binding of several PDZ domains (in words),including several ones from MAGI and NHERF,detectably bound
same,Max BI,maximum over PDZome,0.86
same,number of partners detected for PTEN_KR and not for PTEN_Ac,over a total of 37,8

# From paper PMC7774954, “Interactomic affinity profiling by holdup assay: Acetylation and distal residues impact the PDZome-binding specificity of PTEN phosphatase” (PLoS ONE, 2020)
